Reference: US20240247021A1, “CRYSTAL FORMS OF KUDING SAPONIN A COMPOUND, PHARMACEUTICAL COMPOSITION AND USE THEREOF” (SHANGHAI KE PHARMACEUTICAL CO., LTD, priority 2021, published 2024)
Read-outs that look alike come from different tables or passages of the source.

Columns and labels:
[1] = Hygroscopicity test by dynamic vapor sorption (DVS); format: physicochemical; details: for Degree of hygroscopicity: criteria of Table 12
Procedure: Dynamic vapor sorption (DVS) is a test method for analyzing the moisture sorption performance of a sample and recording the moisture sorption isotherm, and it determines the stability of a compound by identifying its sorption capacity for moisture. Methods for performing dynamic vapor sorption analysis on the crystals are well known to those skilled in the art. In the present invention, the hygroscopicity of the crystal forms A, C, and J of Kudinoside A is determined by using a dynamic vapor sorption instrument, and the specific measurement conditions are shown in Table 7.
About 10 mg of each of the crystal forms A, C, and J obtained in Examples 1-3 was tested for its hygroscopicity using a dynamic vapor sorption (DVS) instrument (test conditions: a temperature of 25° C. and a relative humidity of 0%-80%), and the hygroscopicity of each crystal form was judged using the criteria shown in Table 12 below. For the steps and the judgment criteria of the hygroscopicity test, reference is made to the General Requirement 9103-Guidelines for Hygroscopicity in Pharmacopoeia of the People's Republic of China 2020 (Volume IV).

[2] = Thermogravimetric analysis (TGA); format: physicochemical; details: 10 K/min, nitrogen
Excerpt: Thermogravimetric analysis, or TGA for short, refers to a thermal analysis method for measuring the relationship of the mass of a sample to be detected with the change of temperature or time at a programmed temperature, and it is used to study information related to the quality of the sample, such as thermal stability, components of intermediate products possibly generated, etc. It is often used in combination with other thermal analysis methods for comprehensive thermal analysis. Methods for performing thermogravimetric analysis on the crystals are well known to those skilled in the art. In the present invention, the crystal forms A, C, and J of Kudinoside A are determined by using a thermogravimetric analyzer, and the specific measurement conditions are shown in Table 6.

[3] = Competition experiment of crystal form A and crystal form J in water suspension; format: physicochemical; details: equal mixture of crystal forms A and J suspended in water, stirred at room temperature 3 days; XRPD of wet and dry sample
Procedure: Firstly, an initial mixing sample was prepared: samples of the crystal form A and the crystal form J of Kudinoside A with the equivalent quantity were uniformly mixed, and sampling was carried out for XRPD detection.
Water was added to the sample to form a suspension, which was stirred at room temperature and then centrifuged 3 days later, and sampling was carried out for XRPD detection (wet sample); after drying under vacuum at 30° C., the sample was subjected to XRPD detection (dry sample).

[4] = Conditions under which the crystal forms exist stably; format: physicochemical
[5] = DVS, 25° C., relative humidity 0%-80%
[6] = Accelerated test (40 ± 2° C., humidity 75% ± 5%), 0 month
[7] = Accelerated test (40 ± 2° C., humidity 75% ± 5%), 1 month
[8] = Accelerated test (40 ± 2° C., humidity 75% ± 5%), 3 month
[9] = Accelerated test (40 ± 2° C., humidity 75% ± 5%), 4 month
[10] = Accelerated test (40 ± 2° C., humidity 75% ± 5%), 5 month
[11] = Accelerated test (40 ± 2° C., humidity 75% ± 5%), 6 month
[12] = Long-term test 1 (25 ± 2° C., humidity 60% ± 5%), 0 month
[13] = Long-term test 1 (25 ± 2° C., humidity 60% ± 5%), 1 month
[14] = Long-term test 1 (25 ± 2° C., humidity 60% ± 5%), 3 month
[15] = Long-term test 1 (25 ± 2° C., humidity 60% ± 5%), 4 month
[16] = Long-term test 1 (25 ± 2° C., humidity 60% ± 5%), 6 month
[17] = Long-term test 1 (25 ± 2° C., humidity 60% ± 5%), 9 month
[18] = Long-term test 1 (25 ± 2° C., humidity 60% ± 5%), 12 month
[19] = Long-term test 1 (25 ± 2° C., humidity 60% ± 5%), 24 month
[20] = Long-term test 2 (5 ± 3° C.), 0 month
[21] = Long-term test 2 (5 ± 3° C.), 1 month
[22] = Long-term test 2 (5 ± 3° C.), 3 month
[23] = Long-term test 2 (5 ± 3° C.), 4 month
[24] = Long-term test 2 (5 ± 3° C.), 6 month
[25] = Long-term test 2 (5 ± 3° C.), 9 month
[26] = Long-term test 2 (5 ± 3° C.), 12 month
[27] = Long-term test 2 (5 ± 3° C.), 24 month

- weight change when the relative humidity is in the range of 0%-80% ([1]; DVS graph (FIGS. 1d, 2d, 3d)): about 12%
- hygroscopicity ([1]; DVS graph (FIGS. 1d, 2d, 3d), judgment criteria of Table 7): hygroscopic
- Increase in mass (relative humidity: 0%-80%) [1, 5]: 12%
- Degree of hygroscopicity [1, 5]: hygroscopic
- decomposition temperature [2]: about 318 °C
- crystal form conversion [3]: tends to convert to the crystal form J
- Appearance [6]: White
- Content of Kudinoside A [6]: 100.2 % of the labeled amount
- Content of impurity F (Kudinoside D) [6]: 0.09%
- Total content of impurities [6]: 0.09%
- Appearance [7]: White
- Content of Kudinoside A [7]: 101.7 % of the labeled amount
- Content of impurity F (Kudinoside D) [7]: 0.17%
- Total content of impurities [7]: 0.17%
- Appearance [8]: White
- Content of Kudinoside A [8]: 99.0 % of the labeled amount
- Content of impurity F (Kudinoside D) [8]: 0.26%
- Total content of impurities [8]: 0.43%
- Appearance [9]: White
- Content of Kudinoside A [9]: 98.0 % of the labeled amount
- Content of impurity F (Kudinoside D) [9]: 0.29%
- Total content of impurities [9]: 0.52%
- Appearance [10]: White
- Content of Kudinoside A [10]: 98.9 % of the labeled amount
- Content of impurity F (Kudinoside D) [10]: 0.29%
- Total content of impurities [10]: 0.60%
- Appearance [11]: White
- Content of Kudinoside A [11]: 98.4 % of the labeled amount
- Content of impurity F (Kudinoside D) [11]: 0.29%
- Total content of impurities [11]: 0.66%
- Appearance [12]: White
- Content of Kudinoside A [12]: 100.2 % of the labeled amount
- Content of impurity F (Kudinoside D) [12]: 0.09%
- Total content of impurities [12]: 0.09%
- Appearance [13]: White
- Content of Kudinoside A [13]: 101.4 % of the labeled amount
- Content of impurity F (Kudinoside D) [13]: 0.09%
- Total content of impurities [13]: 0.09%
- Appearance [14]: White
- Content of Kudinoside A [14]: 100.2 % of the labeled amount
- Content of impurity F (Kudinoside D) [14]: 0.12%
- Total content of impurities [14]: 0.12%
- Appearance [15]: White
- Content of Kudinoside A [15]: 99.2 % of the labeled amount
- Content of impurity F (Kudinoside D) [15]: 0.13%
- Total content of impurities [15]: 0.13%
- Appearance [16]: White
- Content of Kudinoside A [16]: 98.3 % of the labeled amount
- Content of impurity F (Kudinoside D) [16]: 0.15%
- Total content of impurities [16]: 0.15%
- Appearance [17]: White
- Content of Kudinoside A [17]: 98.8 % of the labeled amount
- Content of impurity F (Kudinoside D) [17]: 0.19%
- Total content of impurities [17]: 0.19%
- Appearance [18]: White
- Content of Kudinoside A [18]: 99.8 % of the labeled amount
- Content of impurity F (Kudinoside D) [18]: 0.19%
- Total content of impurities [18]: 0.19%
- Appearance [19]: White
- Content of Kudinoside A [19]: 100.2 % of the labeled amount
- Content of impurity F (Kudinoside D) [19]: 0.21%
- Total content of impurities [19]: 0.35%
- Appearance [20]: White
- Content of Kudinoside A [20]: 100.2 % of the labeled amount
- Content of impurity F (Kudinoside D) [20]: 0.09%
- Total content of impurities [20]: 0.09%
- Appearance [21]: White
- Content of Kudinoside A [21]: 101.8 % of the labeled amount
- Content of impurity F (Kudinoside D) [21]: 0.08%
- Total content of impurities [21]: 0.08%
- Appearance [22]: White
- Content of Kudinoside A [22]: 99.9 % of the labeled amount
- Content of impurity F (Kudinoside D) [22]: 0.10%
- Total content of impurities [22]: 0.10%
- Appearance [23]: White
- Content of Kudinoside A [23]: 99.8 % of the labeled amount
- Content of impurity F (Kudinoside D) [23]: 0.08%
- Total content of impurities [23]: 0.08%
- Appearance [24]: White
- Content of Kudinoside A [24]: 98.6 % of the labeled amount
- Content of impurity F (Kudinoside D) [24]: 0.09%
- Total content of impurities [24]: 0.09%
- Appearance [25]: White
- Content of Kudinoside A [25]: 99.2 % of the labeled amount
- Content of impurity F (Kudinoside D) [25]: 0.09%
- Total content of impurities [25]: 0.09%
- Appearance [26]: White
- Content of Kudinoside A [26]: 99.8 % of the labeled amount
- Content of impurity F (Kudinoside D) [26]: 0.09%
- Total content of impurities [26]: 0.09%
- Appearance [27]: White
- Content of Kudinoside A [27]: 101.3 % of the labeled amount
- Content of impurity F (Kudinoside D) [27]: 0.08%
- Total content of impurities [27]: 0.08%
Structure (SMILES): C[C@@H]1O[C@@H](O[C@H]2[C@H](O[C@H]3CC[C@]4(C)[C@H]5C[C@H](O)C6=C7[C@]8(CC[C@](C)(OC8=O)[C@@]7(C)O)CC[C@@]6(C)[C@]5(C)CC[C@H]4C3(C)C)OC[C@H](O)[C@@H]2O[C@@H]2O[C@H](CO)[C@@H](O)[C@H](O)[C@H]2O)[C@H](O)[C@H](O)[C@H]1O [crystal form A, Kudinoside A]
- Degree of hygroscopicity ([1]; DVS, 25° C., relative humidity 0%-80%, listed as A): Hygroscopic (The increase in mass is less than 15% but not less than 2%)
- conditions under which the crystal form exists stably [4]: can exist stably as a dry powder at room temperature
